What was measured:
Type in all cases: cell-based
[1] = system: mutant (Y537S) and mutant (D538G) ER activation domain; experiment: Lac array assay in U2OS cells, mutant ER fusions; conditions: Y537S and D538G mutants, presence versus absence of estrogen
Description: A Lac binding domain-CFP-ER activation domain (ER) fusion protein, Lac binding domain-CFP-mutant (Y537S) ER activation domain fusion protein, or Lac binding domain-CFP-ER mutant (D538G) activation domain fusion protein was introduced into U2OS cells bearing the Lac operon array. […] Same experimental conditions as FIG. 39.
Constructs were assembled by NEB HIFI cloning in pSV2 mammalian expression vector containing an SV40 promoter driving expression of a CFP-LacI fusion protein. The activation domains and mutant activation domains of […] were fused by the c-terminus to this recombinant protein, joined by the linker sequence […] (SEQ ID NO: 17). U2OS-268 cells containing a stably integrated array of ˜51,000 Lac-repressor binding sites (a gift of the Spector laboratory) were transfected using lipofectamine 3000 (Thermofisher L3000015). 24 hours after transfection, cells were plated on fibronectin-coated glass coverslips. After 24 hours on glass coverslips, cells were fixed for immunofluorescence with a MED1 antibody (Table S4) as described above and imaged, by spinning disk confocal microscopy.

MYC oncogene = experiment: Confocal microscopy of MED1 condensates at MYC; conditions: presence versus absence of estrogen
[2] = system: ER LBD point mutant-MED1 condensate in U2OS-Lac cells; experiment: LAC binding assay, ER LBD point mutants tethered to Lac array; conditions: ER mutants (Y537S, D538G)
Procedure: Constructs were assembled by NEB HIFI cloning in pSV2 mammalian expression vector containing an SV40 promoter driving expression of a CFP-LacI fusion protein. The activation domains and mutant activation domains of ESR1 were fused by the c-terminus to this recombinant protein, joined by the linker sequence […] (SEQ ID NO: 14). For some experiments a variant plasmid with mCherry in place of CFP was used. […] Cells were then plated on fibronectin-coated glass coverslips and transfected using lipofectamine 3000 (Thermofisher L3000015). For high MED1 conditions, a construct with a mammalian expression vector containing a PGK promoter driving the expression of MED1 fused to GFP was co-transfected. […]
For analysis of Lac array data, custom Python scripts were written to process and analyze image data gathered in Lac and tagged-protein channels. […] Segmented regions (also determined by measure.label) were then filtered based on minimum area (150 pixels), maximum area (2000 pixels), circularity (c=4pi*area/perimeter^2; 0.8), and presence in a nucleus as defined by the mask described above. A norm enrichment ratio was calculated by determining the mean intensity of the tagged-protein in the segmented Lac spot and dividing it by the mean intensity of the tagged-protein present in the same whole nucleus.

[3] = system: ER LBD (GAL4 DNA-binding domain fusion) in HEK293T cells; experiment: GAL4 transactivation assay; conditions: elevated MED1 levels; 10 nM Tamoxifen, 24 hours
Description: (SEQ ID NO: 14). […] For high MED1 conditions, a construct with a mammalian expression vector containing a PGK promoter driving the expression of MED1 fused to GFP was co-transfected.

OCT4 (FKBP-tagged) = target: T1, OCT4 (FKBP-tagged) (Mus musculus, UniProt P20263+Q8C7D2); experiment: RNA-seq after OCT4 degradation in OCT4-FKBP ESCs; conditions: dTag 24 hours versus DMSO
T1 construct: an ESC line bearing endogenous knock-in of DNA encoding the FKBP protein fused to OCT4; HA (C); endogenous in cells; host or cells: V6.5 mouse ES cells (Med1-mEGFP background), homozygous Oct4-FKBP knock-in
T1 sequence (P20263 with tags, fused parts or gaps): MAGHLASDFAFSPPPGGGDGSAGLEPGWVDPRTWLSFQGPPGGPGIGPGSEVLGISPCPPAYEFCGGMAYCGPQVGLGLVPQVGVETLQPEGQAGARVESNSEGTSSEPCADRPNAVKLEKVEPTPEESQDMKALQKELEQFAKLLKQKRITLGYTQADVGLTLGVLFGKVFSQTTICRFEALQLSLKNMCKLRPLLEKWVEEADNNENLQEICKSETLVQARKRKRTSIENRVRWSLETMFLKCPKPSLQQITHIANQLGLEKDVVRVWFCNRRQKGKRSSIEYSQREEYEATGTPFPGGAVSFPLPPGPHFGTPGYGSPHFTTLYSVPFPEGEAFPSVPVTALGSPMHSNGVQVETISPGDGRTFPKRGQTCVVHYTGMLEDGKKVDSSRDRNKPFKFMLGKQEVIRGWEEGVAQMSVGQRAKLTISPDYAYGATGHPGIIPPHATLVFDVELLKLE
T1 sequence (Q8C7D2 whole entry, the tested form may be a part): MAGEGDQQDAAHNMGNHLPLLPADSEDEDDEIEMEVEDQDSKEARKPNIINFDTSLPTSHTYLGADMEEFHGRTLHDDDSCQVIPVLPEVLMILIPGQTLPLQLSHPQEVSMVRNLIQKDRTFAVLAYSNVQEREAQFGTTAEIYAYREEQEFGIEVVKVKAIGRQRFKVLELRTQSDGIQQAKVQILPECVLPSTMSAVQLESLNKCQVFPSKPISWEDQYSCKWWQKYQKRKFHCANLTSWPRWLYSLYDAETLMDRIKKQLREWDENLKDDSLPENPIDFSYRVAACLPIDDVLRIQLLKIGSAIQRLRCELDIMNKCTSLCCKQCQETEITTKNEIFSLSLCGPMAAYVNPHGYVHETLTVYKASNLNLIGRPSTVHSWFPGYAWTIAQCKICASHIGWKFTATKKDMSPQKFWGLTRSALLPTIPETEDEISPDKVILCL
T1 sequence (Q3U1J4 whole entry partner, the tested form may be a part): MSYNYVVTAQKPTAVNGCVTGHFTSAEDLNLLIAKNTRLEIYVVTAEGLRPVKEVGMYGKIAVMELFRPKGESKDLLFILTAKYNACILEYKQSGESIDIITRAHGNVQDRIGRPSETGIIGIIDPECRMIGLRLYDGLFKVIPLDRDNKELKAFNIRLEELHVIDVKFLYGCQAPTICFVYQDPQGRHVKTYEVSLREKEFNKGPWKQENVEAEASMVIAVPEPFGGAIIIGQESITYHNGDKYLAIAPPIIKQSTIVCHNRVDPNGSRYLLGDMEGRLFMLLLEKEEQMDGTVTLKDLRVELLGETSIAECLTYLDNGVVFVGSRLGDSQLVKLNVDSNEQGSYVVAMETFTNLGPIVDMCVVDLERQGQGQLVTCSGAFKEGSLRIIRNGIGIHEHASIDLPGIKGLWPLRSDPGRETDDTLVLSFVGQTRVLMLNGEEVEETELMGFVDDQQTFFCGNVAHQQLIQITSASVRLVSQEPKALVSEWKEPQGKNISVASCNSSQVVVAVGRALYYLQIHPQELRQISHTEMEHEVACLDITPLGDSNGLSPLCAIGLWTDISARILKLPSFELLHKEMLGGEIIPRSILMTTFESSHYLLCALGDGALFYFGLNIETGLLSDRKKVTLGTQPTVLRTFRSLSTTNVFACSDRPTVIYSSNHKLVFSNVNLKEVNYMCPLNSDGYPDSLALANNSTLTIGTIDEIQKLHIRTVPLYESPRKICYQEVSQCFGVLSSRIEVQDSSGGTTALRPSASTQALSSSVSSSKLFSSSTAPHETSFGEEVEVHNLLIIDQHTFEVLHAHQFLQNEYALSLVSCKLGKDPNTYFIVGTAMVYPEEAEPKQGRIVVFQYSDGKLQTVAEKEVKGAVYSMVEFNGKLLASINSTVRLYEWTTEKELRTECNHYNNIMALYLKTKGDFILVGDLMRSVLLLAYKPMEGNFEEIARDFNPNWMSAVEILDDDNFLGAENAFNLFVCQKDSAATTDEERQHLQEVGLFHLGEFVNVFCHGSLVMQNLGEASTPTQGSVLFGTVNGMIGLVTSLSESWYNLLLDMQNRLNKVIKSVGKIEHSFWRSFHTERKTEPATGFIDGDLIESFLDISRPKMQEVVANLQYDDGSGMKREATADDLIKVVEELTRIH
Procedure: RNA-Seq was performed in the indicated cell line with the indicated treatment, and used to determine expressed genes. RNA was isolated by AllPrep Kit (Qiagen 80204) and stranded polyA selected libraries was prepared using the TruSeq Stranded mRNA Library Prep Kit (Illumina, RS-122-2101) according to manufacturer's protocol and single-end sequenced on a Hi-seq 2500 instrument.
The CRISPR/Cas9 system was used to genetically engineer ESC lines. Target-specific oligonucleotides were cloned into a plasmid carrying a codon-optimized version of Cas9 with GFP (gift from R. Jaenisch). The sequences of the DNA targeted (the protospacer adjacent motif is underlined) are listed in the same table. […]
For analysis, raw reads were aligned to the mm9 revision of the mouse reference genome using hisat2 with default parameters. Gene name-level read count quantification was performed with htseq-count with parameters -I gene_id -stranded=reverse -f bam -m intersection-strict and a GTF containing transcript positions from Refseq, downloaded 6/6/18. Normalized counts, normalized fold-changes, and differential expression p values were determined using DEseq2 using the standard workflow and both replicates of each condition.

C[C@]12CC[C@@H]3c4ccc(O)cc4CC[C@H]3[C@@H]1CC[C@@H]2O [estrogen, B-Estradiol]
condensate formation, CFP signal of fusion protein [1]: did not significantly affect condensate formation
condensate formation, mediator immunofluorescence [1]: did not significantly affect condensate formation
MED1 condensate formation at the MYC oncogene (MYC oncogene): stimulates MED1 condensate formation at the MYC oncogene
MED1 condensate formation at tethered ER LBD, dependence on estrogen [2]: both in the presence and absence of estrogen

CC/C(=C(\c1ccccc1)c1ccc(OCCN(C)C)cc1)c1ccccc1 [tamoxifen]
GAL4 transactivation with tamoxifen-bound ER [3]: showed activation

CC[C@H](C(=O)N1CCCC[C@H]1C(=O)O[C@H](CCc1ccc(OC)c(OC)c1)c1ccccc1OCC(=O)NCCCCCCCCNc1ccc2c(c1)C(=O)N(C1CCC(=O)NC1=O)C2=O)c1cc(OC)c(OC)c(OC)c1 (stereo partly shown) [dTag]
expression of SE-driven genes (OCT4 (FKBP-tagged)): concomitantly decreased
reduction in Nanog mRNA levels (OCT4 (FKBP-tagged)): 60%
